Experimental findings from PubChem BioAssay AID2060893 (Molecular Pharmacology Branch, DTP, NCI, 2025) are described below.

As usually defined, the IC50 is the concentration at which inhibition is half-maximal. Usually viability, T/C stands for the result in the treated group divided by that in the control group, in per cent.

Several values for one entry are separate records, joined by “and”; a condition that tells them apart may be missing. Equal entries are not always repeated.

The assay has as its system K86415-001-R-J1-PDC complex spheroids, viability. The experiment in a line: Anticancer human tumor K86415-001-R-J1-PDC patient-derived lung adenocarcinoma cell line growth inhibition [RAS]. To be noted: for viability, T/C: stronger effect = lower value. Put shortly: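 Agents were tested in combination matrices in half-log decrements from a top concentration at or near clinical Cmax (10 microM if undetermined). Targets were multi-cell spheroids of tumour lines plus HUVEC and MSC stromal cells.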

The mark [1] stands for this setting: curve of first compound, second compound 0.000949 µM.
Setting [2] is: curve of first compound, second compound 0.003 µM.
Setting [3] is: curve of first compound, second compound 0.00949 µM.
Setting [4] is: curve of first compound, second compound 0.03 µM.
[5] abbreviates: curve of first compound, second compound 0.0949 µM.
Where [6] appears, read: curve of first compound, second compound 0.3 µM.
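Also: spheroids exposed to agents for seven days before readout.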

Take `CCN1CCN(Cc2ccc(Nc3ncc(F)c(-c4cc(F)c5nc(C)n(C(C)C)c5c4)n3)nc2)CC1` + CCn1c(-c2cccnc2C(C)OC)c2c3cc(ccc31)N1CCOC(CC(NC(=O)C(C(C)C)N(C)C(=O)C3(F)CCN(C(=O)C#CC(C)(C)N(C)C)CC3)C(=O)N3CCCC(N3)C(=O)OCC(C)(C)C2)C1: the IC50 reads like this: under setting [1], below 3.16 nM; under setting [2], below 3.16 nM; under setting [3], below 3.16 nM; under setting [4], below 3.16 nM; under setting [5], below 3.16 nM; under setting [6], below 3.16 nM. The viability, T/C (second compound 0.000949 µM, first compound 0.00316 µM) is 39.1%; the viability, T/C (second compound 0.000949 µM, first compound 0.01 µM) is 31.2%; the viability, T/C (second compound 0.000949 µM, first compound 0.0316 µM) is 20%; the viability, T/C (second compound 0.000949 µM, first compound 0.1 µM) is 30.3%; the viability, T/C (second compound 0.000949 µM, first compound 0.316 µM) was 31.1%; the viability, T/C (second compound 0.000949 µM, first compound 1 µM) is 20.5%. For the same molecule, the viability, T/C (second compound 0.003 µM, first compound 0.00316 µM) is 12.1%; the viability, T/C (second compound 0.003 µM, first compound 0.01 µM) is 13.1%; the viability, T/C (second compound 0.003 µM, first compound 0.0316 µM) was 12.2%; the viability, T/C (second compound 0.003 µM, first compound 0.1 µM) is 13.9%; the viability, T/C (second compound 0.003 µM, first compound 0.316 µM) is 16.7%; the viability, T/C (second compound 0.003 µM, first compound 1 µM) is 14.6%. Moreover, the viability, T/C is, setting by setting: (second compound 0.00949 µM, first compound 0.00316 µM) 11.7%; (second compound 0.00949 µM, first compound 0.01 µM) 12.4%; (second compound 0.00949 µM, first compound 0.0316 µM) 10.6%; (second compound 0.00949 µM, first compound 0.1 µM) 11.8%; (second compound 0.00949 µM, first compound 0.316 µM) 14.3%; (second compound 0.00949 µM, first compound 1 µM) 19.3%. In addition, the viability, T/C is 14% (second compound 0.03 µM, first compound 0.00316 µM); 11.8% (second compound 0.03 µM, first compound 0.01 µM); 11.1% (second compound 0.03 µM, first compound 0.0316 µM); 14% (second compound 0.03 µM, first compound 0.1 µM); 14.5% (second compound 0.03 µM, first compound 0.316 µM); 13.9% (second compound 0.03 µM, first compound 1 µM). Further, the viability, T/C is, setting by setting: (second compound 0.0949 µM, first compound 0.00316 µM) 12.4%; (second compound 0.0949 µM, first compound 0.01 µM) 14.8%; (second compound 0.0949 µM, first compound 0.0316 µM) 15.8%; (second compound 0.0949 µM, first compound 0.1 µM) 14.8%; (second compound 0.0949 µM, first compound 0.316 µM) 14.4%; (second compound 0.0949 µM, first compound 1 µM) 13.8%. Besides, the viability, T/C was 13.6% (second compound 0.3 µM, first compound 0.00316 µM); 12% (second compound 0.3 µM, first compound 0.01 µM); 11.1% (second compound 0.3 µM, first compound 0.0316 µM); 10.8% (second compound 0.3 µM, first compound 0.1 µM); 9.64% (second compound 0.3 µM, first compound 0.316 µM); 11.7% (second compound 0.3 µM, first compound 1 µM).

As to `CCc1c2c(nc3ccc(O)cc13)-c1cc3c(c(=O)n1C2)COC(=O)[C@]3(O)CC` + CCn1c(-c2cc(N3CCN(C)CC3)cnc2C(C)OC)c2c3cc(ccc31)-c1csc(n1)CC(NC(=O)C1CC1C)C(=O)N1CCCC(N1)C(=O)OCC(C)(C)C2, the IC50 under setting [1] is below 0.949 nM; the half-inhibitory concentration (IC50) under setting [2] is below 0.949 nM; the IC50 under setting [3] was below 0.949 nM; the IC50 under setting [4] was below 0.949 nM; the 50% inhibitory concentration (IC50) under setting [5] is below 0.949 nM; the IC50 under setting [6] was below 0.949 nM. In addition, the viability, T/C runs as follows: (second compound 0.000949 µM, first compound 0.000949 µM) 43.2%; (second compound 0.000949 µM, first compound 0.003 µM) 23.9%; (second compound 0.000949 µM, first compound 0.00949 µM) 12.9%; (second compound 0.000949 µM, first compound 0.03 µM) 16.1%; (second compound 0.000949 µM, first compound 0.0949 µM) 11.6%; (second compound 0.000949 µM, first compound 0.3 µM) 4.09%. Moreover, the viability, T/C is 22% (second compound 0.003 µM, first compound 0.000949 µM); 13.5% (second compound 0.003 µM, first compound 0.003 µM); 12.4% (second compound 0.003 µM, first compound 0.00949 µM); 13.3% (second compound 0.003 µM, first compound 0.03 µM); 10.2% (second compound 0.003 µM, first compound 0.0949 µM); 3.14% (second compound 0.003 µM, first compound 0.3 µM). Further, the viability, T/C is, setting by setting: (second compound 0.00949 µM, first compound 0.000949 µM) 9.02%; (second compound 0.00949 µM, first compound 0.003 µM) 7.98%; (second compound 0.00949 µM, first compound 0.00949 µM) 8.68%; (second compound 0.00949 µM, first compound 0.03 µM) 8.25%; (second compound 0.00949 µM, first compound 0.0949 µM) 5.09%; (second compound 0.00949 µM, first compound 0.3 µM) 2.46%. Also, the viability, T/C is, setting by setting: (second compound 0.03 µM, first compound 0.000949 µM) 5.24%; (second compound 0.03 µM, first compound 0.003 µM) 5.47%; (second compound 0.03 µM, first compound 0.00949 µM) 3.66%; (second compound 0.03 µM, first compound 0.03 µM) 3.44%; (second compound 0.03 µM, first compound 0.0949 µM) 2.88%; (second compound 0.03 µM, first compound 0.3 µM) 1.87%. Moreover, the viability, T/C is, setting by setting: (second compound 0.0949 µM, first compound 0.000949 µM) 3.46%; (second compound 0.0949 µM, first compound 0.003 µM) 3.37%; (second compound 0.0949 µM, first compound 0.00949 µM) 2.84%; (second compound 0.0949 µM, first compound 0.03 µM) 2.41%; (second compound 0.0949 µM, first compound 0.0949 µM) 1.76%; (second compound 0.0949 µM, first compound 0.3 µM) 0.94%. In addition, the viability, T/C (second compound 0.3 µM, first compound 0.000949 µM) is 2.47%; the viability, T/C (second compound 0.3 µM, first compound 0.003 µM) was 2.36%; the viability, T/C (second compound 0.3 µM, first compound 0.00949 µM) was 2.47%; the viability, T/C (second compound 0.3 µM, first compound 0.03 µM) is 2.01%; the viability, T/C (second compound 0.3 µM, first compound 0.0949 µM) is 2.07%; the viability, T/C (second compound 0.3 µM, first compound 0.3 µM) was 0.89%.

With `CC(C)n1nc(-c2ccc3oc(N)nc3c2)c2c(N)ncnc21`, the viability, T/C (compound 0.000316 µM) is 108% [middle of 4 runs]; the viability, T/C (compound 0.001 µM) is 104% [middle of 4 runs]; the viability, T/C (compound 0.00316 µM) was 104% [middle of 4 runs]; the viability, T/C (compound 0.01 µM) was 96.1% [middle of 4 runs]; the viability, T/C (compound 0.0316 µM) is 64.5% [middle of 4 runs]; the viability, T/C (compound 0.1 µM) was 32.2% [middle of 4 runs]. Moreover, the IC50 (curve of compound) was 52.6 nM [middle of 4 runs].

Regarding `C[C@@H](NC(=O)c1ncnc(N)c1Cl)c1ncc(C(=O)Nc2cc(C(F)(F)F)c(Cl)cn2)s1`, the viability, T/C by setting is: (compound 0.0316 µM) 113% [middle of 4 runs]; (compound 0.1 µM) 113% [middle of 4 runs]; (compound 0.316 µM) 97.1% and 109% (2×) and 92.8%; (compound 1 µM) 87.8% [middle of 4 runs]; (compound 3.16 µM) 77.2% [middle of 4 runs]; (compound 10 µM) 64.7% [middle of 4 runs]. In addition, the IC50 (curve of compound) was above 10000 nM.

Regarding `CC(C)NCC(C(=O)N1CCN(c2ncnc3c2C(C)CC3O)CC1)c1ccc(Cl)cc1` (stereo not drawn), the viability, T/C (compound 0.0316 µM) was 109% [middle of 4 runs]; the viability, T/C (compound 0.316 µM) was 97.9% [middle of 4 runs]; the viability, T/C (compound 1 µM) is 92.2% [middle of 4 runs]; the viability, T/C (compound 3.16 µM) is 65% [middle of 4 runs]; the viability, T/C (compound 10 µM) is 49.1% [middle of 4 runs].
